This passage reports IC50 results from US9067922B2, “Chemical compounds” (Pfizer Limited, priority 2013, dated 2015).

Read-outs that look alike come from different tables or passages of the source.

The test addresses URAT-1 transporter (Homo sapiens (Human), UniProt Q96S37). Nature of the test: URAT-1 inhibitor activity: [14C]-uric acid uptake in CHO-URAT1(L)GFP#8 (CHO#8) cells, scintillation proximity. In kind it is cell-based. The text has this: The nucleotide sequence for the long isoform of URAT1 (NM_144585) was C-terminally fused to that of enhanced green fluorescent protein (eGFP) (hereinafter referred to as URAT1(L)GFP). The combined sequence was codon-optimised and custom synthesized. The synthesized sequence was generated in pDONR221 Gateway entry vector (Invitrogen Life Technologies) prior to cloning in pLenti6.3/V5 Gateway destination vector (Invitrogen Life Technologies).
Lentiviral particles were generated according to ViraPower HiPerform expression system procedure (Invitrogen Life Technologies) and used to transduce CHO cells. […] The clonal pools were sorted using fluorescence-activated cell sorting (FACS) on the basis of GFP expression with the gating set at the top 50% of expression into single cells which were subsequently expanded to generate clonal lines. […] This cell line was used for all screening activities and is referred to as CHO-URAT1(L)GFP#8 or CHO#8.
The potency of the compounds of formula (I) as inhibitors of the URAT-1 transporter was determined as follows.
CHO#8 cells were cultured in cell line maintenance flasks in medium consisting of Dulbecco's modified Eagle medium (DMEM) with high glucose and sodium pyruvate (4.5 g of glucose per liter, Invitrogen Life Technologies), supplemented with heat-inactivated foetal bovine serum (FBC, 10% v/v), 1×NEAA (non-essential amino acids) and blasticidin (10 μg/ml). Cultures were grown in 175 cm^2 tissue culture flasks in a humidified incubator at approximately 37° C. in approximately 95% air/5% CO2. Near confluent CHO#8 cell cultures were harvested by trypsinisation, re-suspended in culture medium and the process was repeated once or twice weekly to provide sufficient cells for use.
Assay ready flasks were generated by the same method, except the cells were not cultured in blasticidin.
Assay ready frozen cells were generated by freezing 40,000,000 cells in 1 ml of FBS (without blasticidin) containing 10% DMSO per vial. One vial was sufficient for 5 assay plates. Each vial was thawed rapidly to 37° C., washed and re-suspended in pre-warmed culture medium for seeding onto assay plates.
CHO#8 cells were seeded onto Cytostar™ 96-well plates at a density of […]. The cells were cultured for 1 day at approximately 37° C. in a humidified incubator containing approximately 5% CO2 in air. After approximately 24 hours culture, cells were used for uptake experiments.
On the day of assay, culture medium was removed from the wells and the cells were washed once with 50 μL of chloride-containing buffer (136.7 mM NaCl, 5.36 mM KCl, 0.952 mM CaCl2, 0.441 mM KH2PO4, 0.812 mM MgSO4, 5.6 mM D-glucose, 0.383 mM Na2HPO4.2H2O, 10 mM HEPES, pH 7.4 with NaOH). The cells were pre-incubated with another 50 μL of chloride-containing buffer for one hour at approximately 37° C. in a humidified incubator containing approximately 5% CO2 in air.
Assay compound plates were prepared by diluting the compounds of formula (I) with chloride-free buffer (125 mM Na-gluconate, 4.8 mM K-gluconate, 1.3 mM Ca-gluconate, 1.2 mM KH2PO4, 1.2 mM MgSO4, 5.6 mM D-glucose, 25 mM HEPES, pH 7.4 with NaOH) in 100% DMSO to a final concentration of 1% DMSO. [^14C]-Uric Uric acid working stock was made by addition of radiolabeled compound to a final concentration of 120 nM in chloride-free buffer. In all wells, the final assay concentration of solvent (DMSO) was 0.25%; the final assay concentration of [^14C]-uric acid was 30 nM in chloride-free buffer and the final compound of formula (I) concentrations ranged from 0 to 10 μM.
After pre-incubation, cells were washed with 50 μL of chloride-free buffer and another 50 μL of chloride-free buffer was added.
In general terms: Scintillation proximity formats need no separation of bound from free tracer.

The mark [1] stands for this setting: inhibition of [14C]-uric acid (30 nM) uptake into CHO#8 cells, compound 0 to 10 μM, 4 parameter logistic fit.

Chain of URAT-1 transporter (Q96S37 other isoform, or with tags, fused parts or gaps): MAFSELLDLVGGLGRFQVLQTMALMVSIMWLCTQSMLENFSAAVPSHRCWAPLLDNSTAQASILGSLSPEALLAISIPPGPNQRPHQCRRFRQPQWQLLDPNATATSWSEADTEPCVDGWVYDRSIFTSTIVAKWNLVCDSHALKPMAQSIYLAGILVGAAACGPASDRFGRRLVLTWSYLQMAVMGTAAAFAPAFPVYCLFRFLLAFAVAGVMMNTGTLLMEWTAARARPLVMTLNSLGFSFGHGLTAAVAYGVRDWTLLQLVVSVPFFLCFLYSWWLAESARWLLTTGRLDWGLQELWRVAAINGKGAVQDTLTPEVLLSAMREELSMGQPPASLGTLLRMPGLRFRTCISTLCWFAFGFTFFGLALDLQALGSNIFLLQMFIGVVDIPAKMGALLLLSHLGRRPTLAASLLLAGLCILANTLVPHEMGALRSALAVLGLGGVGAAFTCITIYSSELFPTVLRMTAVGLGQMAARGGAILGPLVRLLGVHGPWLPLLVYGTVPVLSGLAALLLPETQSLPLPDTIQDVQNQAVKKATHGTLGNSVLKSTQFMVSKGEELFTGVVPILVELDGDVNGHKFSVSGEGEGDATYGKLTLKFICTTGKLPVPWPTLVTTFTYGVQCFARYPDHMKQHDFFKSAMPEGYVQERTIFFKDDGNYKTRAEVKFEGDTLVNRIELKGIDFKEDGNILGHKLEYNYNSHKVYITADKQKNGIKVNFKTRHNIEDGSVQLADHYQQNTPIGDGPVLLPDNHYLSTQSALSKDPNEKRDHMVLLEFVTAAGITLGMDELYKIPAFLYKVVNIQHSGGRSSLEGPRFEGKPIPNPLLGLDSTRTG

The IC50 is the concentration at which inhibition is half-maximal. For the compound `N#Cc1cc(S(=O)(=O)Nc2ccc(F)cn2)ccc1Oc1ccc(F)c(Cl)c1Cl` [Example 38, 3-cyano-4-(2,3-dichloro-4-fluorophenoxy)-N-(5-fluoropyridin-2-yl)benzenesulfonamide], the 50% inhibitory concentration (IC50) under setting [1] turned out to be 55 nM.
Still for that read-out and setting: then `COc1cccc(Oc2ccc(S(=O)(=O)Nc3ccc(F)cn3)cc2C#N)c1C` [Example 181, 3-cyano-N-(5-fluoropyridin-2-yl)-4-(3-methoxy-2-methylphenoxy)benzenesulfonamide], with more than 10000 nM; and `N#Cc1c(Cl)cccc1Oc1ccc(S(=O)(=O)Nc2cnccn2)cc1` [Example 223, 4-(3-chloro-2-cyanophenoxy)-N-(pyrazin-2-yl)benzenesulfonamide], with more than 10000 nM; and `N#Cc1cc(S(=O)(=O)Nc2ccc(F)cn2)ccc1Oc1ccccc1OC(F)(F)F` [Example 27, 3-cyano-N-(5-fluoropyridin-2-yl)-4-[2-(trifluoromethoxy)phenoxy]benzenesulfonamide], with 274 nM.
On the same count and under the same terms, then `Cc1ccc(C)c(Oc2ccc(S(=O)(=O)Nc3ccc(F)cn3)cc2C#N)c1` [Example 158, 3-cyano-4-(2,5-dimethylphenoxy)-N-(5-fluoropyridin-2-yl)benzenesulfonamide], with 122 nM.
Still for that read-out and setting: then `CCOc1ncccc1Oc1ccc(S(=O)(=O)Nc2ccc(F)cn2)cc1C#N` [Example 154, 3-cyano-4-[(2-ethoxypyridin-3-yl)oxy]-N-(5-fluoropyridin-2-yl)benzenesulfonamide], with more than 10000 nM; and `Cc1ccc(Cl)cc1Oc1ccc(S(=O)(=O)Nc2ccc(F)cn2)cc1C#N` [Example 39, 4-(5-chloro-2-methylphenoxy)-3-cyano-N-(5-fluoropyridin-2-yl)benzenesulfonamide], with 80 nM; and `N#Cc1cc(S(=O)(=O)Nc2ccc(F)cn2)ccc1Oc1cc(C(F)(F)F)ccc1F` [Example 4, 3-cyano-N-(5-fluoropyridin-2-yl)-4-[2-fluoro-5-(trifluoromethyl)phenoxy]benzenesulfonamide], with more than 10000 nM.
`COc1ccccc1Oc1ccc(S(=O)(=O)Nc2ccc(F)cn2)cc1C#N` [Example 142, 3-cyano-N-(5-fluoropyridin-2-yl)-4-(2-methoxyphenoxy)benzenesulfonamide] gave an IC50 under setting [1] of 75 nM.
The same measure, in the same setting: then `Cc1c(F)ccc(Oc2ccc(S(=O)(=O)Nc3ccc(F)cn3)cc2C#N)c1Cl` [Example 147, 4-(2-chloro-4-fluoro-3-methylphenoxy)-3-cyano-N-(5-fluoropyridin-2-yl)benzenesulfonamide], with 187 nM.
The same measure, in the same setting: then `COc1cc(Oc2ccc(S(=O)(=O)Nc3ccc(F)cn3)cc2C#N)ccc1Cl` [Example 71, 4-(4-chloro-3-methoxyphenoxy)-3-cyano-N-(5-fluoropyridin-2-yl)benzenesulfonamide], with 27 nM.
In the case of `COc1ccc(F)cc1Oc1ccc(S(=O)(=O)Nc2ccc(F)cn2)cc1C#N` [Example 120, 3-cyano-4-(5-fluoro-2-methoxyphenoxy)-N-(5-fluoropyridin-2-yl)benzenesulfonamide], under setting [1], the half-inhibitory concentration (IC50) was more than 10000 nM.
On the same count and under the same terms, the same measure for `N#Cc1cc(S(=O)(=O)Nc2ccc(F)cn2)ccc1Oc1ccc(C(F)(F)F)cc1` [Example 54, 3-cyano-N-(5-fluoropyridin-2-yl)-4-[4-(trifluoromethyl)phenoxy]benzenesulfonamide]: more than 10000 nM; for `N#Cc1cc(S(=O)(=O)Nc2ccc(F)cn2)ccc1Oc1ccccc1Cl` [Example 9, 4-(2-chlorophenoxy)-3-cyano-N-(5-fluoropyridin-2-yl)benzenesulfonamide]: 208 nM; for `N#Cc1cc(S(=O)(=O)Nc2ccc(F)cn2)ccc1Oc1ccc(Cl)cc1F` [Example 47, 4-(4-chloro-2-fluorophenoxy)-3-cyano-N-(5-fluoropyridin-2-yl)benzenesulfonamide]: 50 nM.
With `[2H]c1c(Oc2ccc(S(=O)(=O)Nc3ccc(F)cn3)c(F)c2)c([2H])c(C([2H])([2H])[2H])c(C#N)c1C([2H])([2H])[2H]` [Example 249], the IC50 came to 21 nM.
`N#Cc1cc(S(=O)(=O)Nc2ccc(F)cn2)ccc1Oc1cc(F)ccc1F` [Example 53, 3-cyano-4-(2,5-difluorophenoxy)-N-(5-fluoropyridin-2-yl)benzenesulfonamide]: the half-inhibitory concentration (IC50) under setting [1] was found to be 191 nM.
On the same count and under the same terms, then `COc1cc(Oc2ccc(S(=O)(=O)Nc3ccc(F)cn3)cc2C#N)ccc1C#N` [Example 76, 3-cyano-4-(4-cyano-3-methoxyphenoxy)-N-(5-fluoropyridin-2-yl)benzenesulfonamide], with 57 nM; and `N#Cc1cc(S(=O)(=O)Nc2ccc(F)cn2)ccc1Oc1cc(Cl)c(F)cc1Cl` [Example 107, 3-cyano-4-(2,5-dichloro-4-fluorophenoxy)-N-(5-fluoropyridin-2-yl)benzenesulfonamide], with 58 nM.
The compound `N#Cc1cc(Oc2ccc(S(=O)(=O)Nc3ccc(F)cn3)cc2C#N)ccc1F` [Example 19, 3-cyano-4-(3-cyano-4-fluorophenoxy)-N-(5-fluoropyridin-2-yl)benzenesulfonamide] yielded an IC50 under setting [1] of 57 nM.
On the same count and under the same terms, then `Cc1ccc(C(C)C)cc1Oc1ccc(S(=O)(=O)Nc2ccc(F)cn2)cc1C#N` [Example 174, 3-cyano-N-(5-fluoropyridin-2-yl)-4-[2-methyl-5-(propan-2-yl)phenoxy]benzenesulfonamide], with more than 10000 nM.
The same measure, in the same setting: the same measure for `N#Cc1cc(S(=O)(=O)Nc2ccc(F)cn2)ccc1Oc1cccc(OC(F)(F)F)c1` [Example 18, 3-cyano-N-(5-fluoropyridin-2-yl)-4-[3-(trifluoromethoxy)phenoxy]benzenesulfonamide]: more than 10000 nM; for `CCc1cc(F)ccc1Oc1ccc(S(=O)(=O)Nc2ccc(F)cn2)cc1C#N` [Example 56, 3-cyano-4-(2-ethyl-4-fluorophenoxy)-N-(5-fluoropyridin-2-yl)benzenesulfonamide]: 182 nM; for `N#Cc1cc(S(=O)(=O)Nc2ccc(F)cn2)ccc1Oc1cccnc1` [Example 194, 3-cyano-N-(5-fluoropyridin-2-yl)-4-(pyridin-3-yloxy)benzenesulfonamide]: more than 10000 nM.
Same read-out and setting: the same measure for `COc1cc(C#N)ccc1Oc1ccc(S(=O)(=O)Nc2ccc(F)cn2)cc1C#N` [Example 204, 3-cyano-4-(4-cyano-2-methoxyphenoxy)-N-(5-fluoropyridin-2-yl)benzenesulfonamide]: more than 10000 nM.
Under setting [1], `Cc1cc(Oc2ccc(S(=O)(=O)Nc3ccc(F)cn3)cc2C#N)ccc1F` [Example 141, 3-cyano-4-(4-fluoro-3-methylphenoxy)-N-(5-fluoropyridin-2-yl)benzenesulfonamide] had an IC50 of 43 nM.
On the same count and under the same terms, the same measure for `CC(C)(O)c1ccc(Oc2ccc(S(=O)(=O)Nc3ccc(F)cn3)cc2C#N)cc1` [compound 234]: 1150 nM; for `N#Cc1ccc(Oc2c(F)cc(S(=O)(=O)Nc3ccc(F)cn3)cc2C#N)cc1Cl` [Example 248, 4-(3-chloro-4-cyanophenoxy)-3-cyano-5-fluoro-N-(5-fluoropyridin-2-yl)benzenesulfonamide]: 324 nM.
The same measure, in the same setting: the same measure for `Cc1ccc(Oc2ccc(S(=O)(=O)Nc3ccc(F)cn3)cc2C#N)cc1Cl` [Example 22, 4-(3-chloro-4-methylphenoxy)-3-cyano-N-(5-fluoropyridin-2-yl)benzenesulfonamide]: 209 nM.
`COc1cc(C)ccc1Oc1ccc(S(=O)(=O)Nc2ccc(F)cn2)cc1C#N` [Example 140, 3-cyano-N-(5-fluoropyridin-2-yl)-4-(2-methoxy-4-methylphenoxy)benzenesulfonamide]: the 50% inhibitory concentration (IC50) under setting [1] was more than 10000 nM.
Same read-out and setting: then `N#Cc1cc(S(=O)(=O)Nc2ccc(F)cn2)ccc1Oc1cccc(C(F)(F)F)c1` [Example 23, 3-cyano-N-(5-fluoropyridin-2-yl)-4-[3-(trifluoromethyl)phenoxy]benzenesulfonamide], with more than 10000 nM.
